The nature of series [1]: The drug is tested on Z-023 corresponding to metagenome with ENA study accession number: PRJEB37062 and ENA sample accession number: ERS12561822 for biotransformation under anaerobic condition. The drug concentrations were measured over 9 timepoints collected between 0 and 24 hours of incubation by liquid-chromatography-coupled mass spectrometry (LC–MS). The settings on record: 2 µM.

Series [2] can be described thus: The drug is tested on Z-021 corresponding to metagenome with ENA study accession number: PRJEB37062 and ENA sample accession number: ERS12561820 for biotransformation under anaerobic condition. The drug concentrations were measured over 9 timepoints collected between 0 and 24 hours of incubation by liquid-chromatography-coupled mass spectrometry (LC–MS). The settings on record: 2 µM.

The nature of series [3]: The drug is tested on Z-020 corresponding to rabbit gut metagenome with ENA study accession number: PRJEB37062 and ENA sample accession number: ERS12561819 for biotransformation under anaerobic condition. The drug concentrations were measured over 9 timepoints collected between 0 and 24 hours of incubation by liquid-chromatography-coupled mass spectrometry (LC–MS). Particulars: 2 µM.

Series [4] is described as follows: The drug is tested on Z-019 corresponding to rat gut metagenome with ENA study accession number: PRJEB37062 and ENA sample accession number: ERS12561818 for biotransformation under anaerobic condition. The drug concentrations were measured over 9 timepoints collected between 0 and 24 hours of incubation by liquid-chromatography-coupled mass spectrometry (LC–MS). The settings on record: 2 µM.

Series [5] in a line: The drug is tested on Z-012 corresponding to metagenome with ENA study accession number: PRJEB37062 and ENA sample accession number: ERS12561812 for biotransformation under anaerobic condition. The drug concentrations were measured over 9 timepoints collected between 0 and 24 hours of incubation by liquid-chromatography-coupled mass spectrometry (LC–MS). The settings on record: 2 µM.

The nature of series [6]: The drug is tested on Z-006 corresponding to mouse gut metagenome with ENA study accession number: PRJEB37062 and ENA sample accession number: ERS12561806 for biotransformation under anaerobic condition. The drug concentrations were measured over 9 timepoints collected between 0 and 24 hours of incubation by liquid-chromatography-coupled mass spectrometry (LC–MS). Particulars: 2 µM.

The nature of series [7]: The drug is tested on Z-005 corresponding to metagenome with ENA study accession number: PRJEB37062 and ENA sample accession number: ERS12561805 for biotransformation under anaerobic condition. The drug concentrations were measured over 9 timepoints collected between 0 and 24 hours of incubation by liquid-chromatography-coupled mass spectrometry (LC–MS). The settings on record: 2 µM.

The nature of series [8]: The drug is tested on Z-002 corresponding to rabbit gut metagenome with ENA study accession number: PRJEB37062 and ENA sample accession number: ERS12561802 for biotransformation under anaerobic condition. The drug concentrations were measured over 9 timepoints collected between 0 and 24 hours of incubation by liquid-chromatography-coupled mass spectrometry (LC–MS). Particulars: 2 µM.

For series [9] the following is noted: human gut metagenome, 24 h, 2 µM.
The conditions of series [10]: human gut metagenome, 24 h, 2 µM. The source holds these as a separate data set.
For series [11] the following is noted: human gut metagenome, 24 h, 2 µM. This is another data set of the same source.
The conditions of series [12]: human gut metagenome, 24 h, 2 µM. This is another data set of the same source.
The conditions of series [13]: human gut metagenome, 24 h, 2 µM. This is another data set of the same source.
For series [14] the following is noted: human gut metagenome, 24 h, 2 µM. The source holds these as a separate data set.
For series [15] the following is noted: human gut metagenome, 24 h, 2 µM. This is another data set of the same source.
The conditions of series [16]: human gut metagenome, 24 h, 2 µM. The source holds these as a separate data set.
The conditions of series [17]: human gut metagenome, 24 h, 2 µM. This is another data set of the same source.
For series [18] the following is noted: human gut metagenome, 24 h, 2 µM. The source holds these as a separate data set.
For series [19] the following is noted: human gut metagenome, 24 h, 2 µM. The source holds these as a separate data set.
The conditions of series [20]: human gut metagenome, 24 h, 2 µM. The source holds these as a separate data set.
Note: call rule not given here.

In the case of `CC[C@@H](CO)NC(=O)[C@@H]1C=C2c3cccc4c3c(cn4C)C[C@H]2N(C)C1.O=C(O)/C=C\C(=O)O` [METHYSERGIDE MALEATE], the “Bacterial Biotransformation” value in [1], in series [2], in series [3], in series [4], in series [5] and in [6] was “Compound NOT metabolized” each time. The “Bacterial Biotransformation” value in [7] is listed as “Compound NOT metabolized”; in series [8], “Compound NOT metabolized”; in series [9], “Compound NOT metabolized”; in series [10] it was “Compound NOT metabolized”; in series [11], “Compound NOT metabolized”; in series [12], “Compound metabolized”. Also, the “Bacterial Biotransformation” value in series [13] is “Compound metabolized”; in series [14], “Compound NOT metabolized”; in [15], “Compound NOT metabolized”; in series [16] it was “Compound NOT metabolized”; in series [17], “Compound NOT metabolized”; in series [18], “Compound NOT metabolized”. For the same compound, the “Bacterial Biotransformation” value in series [19] was “Compound NOT metabolized”; in series [20] it was “Compound metabolized”.
With `CCN(CC)CCNC(=O)c1cc(Cl)c(N)cc1OC` [METOCLOPRAMIDE], the “Bacterial Biotransformation” value in series [1], in [2], in series [3], in series [4], in [5] and in series [6] was “Compound NOT metabolized” throughout. Moreover, the “Bacterial Biotransformation” value in series [7], in series [8], in [9], in series [10], in [11] and in series [12] was “Compound NOT metabolized” in each case. Besides, the “Bacterial Biotransformation” value in series [13], in [14], in series [15], in [16], in series [17] and in series [18] was “Compound NOT metabolized” each time. For the same compound, the “Bacterial Biotransformation” value was “Compound NOT metabolized” in [19] and “Compound metabolized” in [20].
As for `Cc1ccccc1N1C(=O)c2cc(S(N)(=O)=O)c(Cl)cc2NC1C` (stereo not given) [METOLAZONE], the “Bacterial Biotransformation” value in [1], in series [2], in series [3], in [4], in [5] and in series [6] was “Compound NOT metabolized” each time. Moreover, the “Bacterial Biotransformation” value in series [7], in series [8], in [9], in [10], in [11] and in series [12] was “Compound NOT metabolized” in each case. In addition, the “Bacterial Biotransformation” value in [13] is listed as “Compound NOT metabolized”; in series [14], “Compound NOT metabolized”; in [15], “Compound NOT metabolized”; in [16], “Compound NOT metabolized”; in [17] it was “Compound NOT metabolized”; in series [18], “Compound metabolized”. For the same compound, the “Bacterial Biotransformation” value in [19] is on record as “Compound NOT metabolized”; in [20], “Compound metabolized”.
`COCCc1ccc(OCC(O)CNC(C)C)cc1.COCCc1ccc(OCC(O)CNC(C)C)cc1.O=C(O)C(O)C(O)C(=O)O` (stereo not given) [METOPROLOL TARTRATE]: the “Bacterial Biotransformation” value in series [1], in series [2], in series [3], in series [4], in series [5] and in series [6] was “Compound NOT metabolized” throughout. Besides, the “Bacterial Biotransformation” value in [7] is listed as “Compound NOT metabolized”; in series [8], “Compound metabolized”; in series [9], “Compound NOT metabolized”; in [10], “Compound NOT metabolized”; in series [11], “Compound NOT metabolized”; in [12], “Compound NOT metabolized”. Moreover, the “Bacterial Biotransformation” value was “Compound metabolized” in series [13]; “Compound NOT metabolized” in series [14]; “Compound NOT metabolized” in series [15]; “Compound metabolized” in series [16]; “Compound NOT metabolized” in series [17]; “Compound metabolized” in series [18]. The “Bacterial Biotransformation” value in series [19] and in [20] was “Compound NOT metabolized” throughout.
Take `CCN(CC)CCOC(=O)C(Cc1cccc2ccccc12)CC1CCCO1.O=C(O)C(=O)O` (stereo not given) [NAFRONYL OXALATE]: the “Bacterial Biotransformation” value in series [1] is reported as “Compound metabolized”; in series [2], “Compound metabolized”; in [3] it was “Compound metabolized”; in series [4] it was “Compound NOT metabolized”; in [5] it was “Compound metabolized”; in series [6], “Compound metabolized”. In addition, the “Bacterial Biotransformation” value in series [7], in series [8], in [9], in series [10], in series [11] and in series [12] was “Compound metabolized” in each case. In addition, the “Bacterial Biotransformation” value in series [13] is given as “Compound metabolized”; in series [14], “Compound NOT metabolized”; in [15] it was “Compound NOT metabolized”; in series [16], “Compound metabolized”; in [17], “Compound metabolized”; in series [18] it was “Compound metabolized”. Moreover, the “Bacterial Biotransformation” value in series [19] and in [20] was “Compound metabolized” each time.
As for `C=CCN1CC[C@]23c4c5ccc(O)c4O[C@H]2C(=O)CC[C@@]3(O)[C@H]1C5` [NALOXONE], the “Bacterial Biotransformation” value in series [1], in series [2], in series [3], in series [4], in [5] and in series [6] was “Compound NOT metabolized” in each case. Besides, the “Bacterial Biotransformation” value in [7], in series [8], in series [9], in series [10], in [11] and in series [12] was “Compound NOT metabolized” each time. The “Bacterial Biotransformation” value in series [13], in series [14], in series [15], in [16], in series [17] and in series [18] was “Compound NOT metabolized” in each case. Further, the “Bacterial Biotransformation” value in series [19] and in series [20] was “Compound NOT metabolized” throughout.
